Results reported in US9889155B2, “Enhancer of anti-tumor effect of anti-cancer agent” (priority 2014, dated 2018).
≈ marks a conversion by molar mass, not a printed value. Structures can show the parent of a compound that is named as a salt.

How the values were obtained:
[1] = system: Human colorectal cancer cells (HCT116); test: IC50 of 5-fluorouracil against HCT116 cells with or without sCA particles, cell count (Example 1); assay type: cell-based; conditions: sCA(1) particles added 24 hours before, where used
Description: At 24, 48, and 72 hours after the addition of 5-fluorouracil, the number of cells was counted, and IC50 (concentration of 5-fluorouracil that kills 50% of the cancer cells) values were determined.

[2] = system: Human colorectal cancer cells (HCT116); test: IC50 of anticancer agents against HCT116 cells with or without sCA particles, cell count at 48 hours (Example 2); assay type: cell-based
Description: At 48 hours after the addition of each of the anticancer agents, the number of cells was counted, and the IC50 (concentration of 5-fluorouracil that kills 50% of the cancer cells) value was determined.

[3] = system: human colorectal cancer cell line HT29 subcutaneous tumor; test: Doxorubicin accumulation in HT29 subcutaneous tumors, IVIS Spectrum fluorescent imaging (Example 7); assay type: in vivo, BALB/cA nude mice; conditions: HT29 tumor mice; doxorubicin hydrochloride 1.5 mg/mouse via tail vein; tumors removed after 2 hours; sCA(2) particles 3 hours before, where used; FIG. 9
Description: At the time when the tumors reached about 10 mm in diameter, the mice were randomly divided into the two groups shown in Table 5, and each group was administered the drug. After 2 hours from the drug administration, tumors were removed from the mice, and doxorubicin hydrochloride accumulated in the tumors was detected by fluorescent imaging using the IVIS Spectrum. For doxorubicin (DOX), detection of fluorescence wavelength has been confirmed by the IVIS Spectrum (FIG. 8).

[4] = Homo sapiens, HCT-116, 48 hours after addition of anticancer agent, With sCA particles, read-out: IC50 (mean ± SD), With sCA particles
[5] = Homo sapiens, HCT-116, 48 hours after addition of anticancer agent, Without sCA particles, read-out: IC50 (mean ± SD), Without sCA particles
[6] = 48 hours after addition of anticancer agent, With sCA particles, read-out: IC50 (mean ± SD), With sCA particles
[7] = 48 hours after addition of anticancer agent, Without sCA particles, read-out: IC50 (mean ± SD), Without sCA particles

| IC50 [2, 4] [µM] | IC50 [2, 5] [µM] | Compound | IC50 [2, 6] [µM] | IC50 [2, 7] [µM] | further results |
| --- | --- | --- | --- | --- | --- |
| 74.6 ± 10 | 11.7 ± 2 | O=c1[nH]cc(F)c(=O)[nH]1 [5-fluorouracil] |  |  | IC50 ([1]; HCT-116, 24 hours after addition of 5-fluorouracil, read-out: IC50 (mean ± SD), After 24 hr): 215 ± 141 µg/mL (≈ 1650 µM); IC50 ([1]; HCT-116, 48 hours after addition of 5-fluorouracil, read-out: IC50 (mean ± SD), After 48 hr): 4.07 ± 0.473 µg/mL (≈ 31.3 µM); IC50 ([1]; HCT-116, 72 hours after addition of 5-fluorouracil, read-out: IC50 (mean ± SD), After 72 hr): 2.64 ± 0.696 µg/mL (≈ 20.3 µM) |
|  |  | N.N.[Cl][Pt][Cl] [Cisplatin, cisplatin] | 39.2 ± 2.7 | 31.3 ± 0.9 |  |
| 0.00917 ± 0.00042 | 0.000353 ± 7e-05 | CC(=O)O[C@@]12CO[C@@H]1C[C@H](O)[C@@]1(C)C(=O)[C@H](O)C3=C(C)[C@@H](OC(=O)[C@H](O)[C@@H](NC(=O)OC(C)(C)C)c4ccccc4)C[C@@](O)([C@@H](OC(=O)c4ccccc4)[C@H]21)C3(C)C [Docetaxel, docetaxel] |  |  |  |
|  |  | O=C1[O][Pt]2([NH][C@@H]3CCCC[C@H]3[NH]2)[O]C1=O [Oxaliplatin, oxaliplatin] | 31.3 ± 2.2 | 3.7 ± 1.1 |  |
|  |  | COc1cccc2c1C(=O)c1c(O)c3c(c(O)c1C2=O)C[C@@](O)(C(=O)CO)C[C@@H]3O[C@H]1C[C@H](N)[C@H](O)[C@H](C)O1 [doxorubicin hydrochloride] |  |  | doxorubicin accumulated in the tumor (fluorescent imaging) [3]: only a small amount of doxorubicin was detected in the tumor |
